Assay results taken from patent US9328374B2, “Selective culture medium and method for detecting carbapenem-resistant bacteria in a test sample” (Institut National de la Sante et de la Recherche Medicale …, priority 2011, dated 2016).
Read-outs that look alike come from different tables or passages of the source.

Assays:
[1] = system: K. pneumoniae; assay: MIC of imipenem, ertapenem and meropenem; assay type: cell-based, Klebsiella pneumoniae; conditions: Klebsiella pneumoniae, read-out: MIC
[2] = system: C. freundii; assay: MIC of imipenem, ertapenem and meropenem; assay type: cell-based, Citrobacter freundii

## C[C@@H](O)[C@H]1C(=O)N2C(C(=O)O)=C(S[C@@H]3CN[C@H](C(=O)Nc4cccc(C(=O)O)c4)C3)[C@H](C)[C@H]12 [ETP, ertapenem]
[1]; K. pneumoniae LOU, OXA-48
  MIC: 16 µg/mL
[1]; K. pneumoniae MAD (VIM-1 + CTX-M-3)
  MIC: 0.5 µg/mL
[1]; K. pneumoniae MAD, VIM-1+ CTX-M-3
  MIC: 0.5 µg/mL
[1]; K. pneumoniae MEK (CTX-M-15 + SHV-11)
  MIC: > 32 µg/mL
[1]; K. pneumoniae MEK, CTX-M-15 + SHV-11, non-carbapenemase producer, porin deficiency
  MIC: > 32 µg/mL
[1]; K. pneumoniae MUS (KPC-2 + TEM-1 + SHV-11 + SHV-12)
  MIC: 4 µg/mL
[1]; K. pneumoniae MUS, KPC-2 + TEM-1 + SHV-11 + SHV-12
  MIC: 4 µg/mL
[1]; K. pneumoniae OM2 (NDM-1 + TEM-1 + CTX-M-3 + SHV-11 + OXA-1)
  MIC: 8 µg/mL
[1]; K. pneumoniae OM2, NDM-1 + TEM-1 + CTX-M-3 + SHV-11 + OXA-1
  MIC: 8 µg/mL
[1]; K. pneumoniae OM4, NDM-1 + TEM-1 + CTX-M-15 + SHV-12 + OXA-9
  MIC: > 32 µg/mL
[1]; K. pneumoniae OM8, NDM-1 + TEM-1 + CTX-M-15 + SHV-11 + OXA-1
  MIC: > 32 µg/mL
[1]; K. pneumoniae OM11, OXA-48 + TEM-1 + CTX-M-14
  MIC: 0.75 µg/mL
[1]; K. pneumoniae OM13, NDM-1 + TEM-1 + CTX-M-15 + SHV-28 + OXA-1 + OXA-9
  MIC: 4 µg/mL
[1]; K. pneumoniae OM14, OXA-48 + TEM-1
  MIC: 1 µg/mL
[1]; K. pneumoniae OM15, NDM-1 + CTX-M-15 + SHV-130 + OXA-1
  MIC: 12 µg/mL
[1]; K. pneumoniae OM16, NDM-1 + CTX-M-15 + OXA-1 + OXA-181
  MIC: > 32 µg/mL
[1]; K. pneumoniae OM19, NDM-1 + CTX-M-15 + SHV-12 + OXA-1
  MIC: 24 µg/mL
[1]; K. pneumoniae OMA419 (NDM-1 + OXA-1)
  MIC: 6 µg/mL
[1]; K. pneumoniae OMA419, NDM-1 + OXA-1
  MIC: 6 µg/mL
[1]; K. pneumoniae OMA601, NDM-1 + CTX-M-15 + OXA-1 + OXA-9
  MIC: > 32 µg/mL
[1]; K. pneumoniae OMA (OXA-181 + CTX-M-15 + OXA-1)
  MIC: 2 µg/mL
[1]; K. pneumoniae OMA, OXA-181 + CTXM-15 + OXA-1
  MIC: 2 µg/mL
[1]; K. pneumoniae RAM (OXA-48)
  MIC: 4 µg/mL
[1]; K. pneumoniae RAM, OXA-48
  MIC: 4 µg/mL
[1]; K. pneumoniae ROB (OXA-48 + CTX-M-15 + TEM-1)
  MIC: 3 µg/mL
[1]; K. pneumoniae ROU (OXA-48 + CTX-M-15)
  MIC: 1.5 µg/mL
[1]; K. pneumoniae ROU, OXA-48 + CTX-M-15
  MIC: 1.5 µg/mL
[1]; K. pneumoniae SCO (OXA-48)
  MIC: 0.75 µg/mL
[1]; K. pneumoniae SCO, OXA-48
  MIC: 0.75 µg/mL
[1]; K. pneumoniae SHI (CTX-M-15 + TEM-1 + SHV-1)
  MIC: 1 µg/mL
[1]; K. pneumoniae SHI, CTX-M-15 + TEM-1 + SHV-11, non-carbapenemase producer, porin deficiency
  MIC: 1 µg/mL
[1]; K. pneumoniae SHM (CTX-M-15 + TEM-1 + SHV-11)
  MIC: > 32 µg/mL
[1]; K. pneumoniae SHM, CTX-M-15 + TEM-1 + SHV-11, non-carbapenemase producer, porin deficiency
  MIC: > 32 µg/mL
[1]; K. pneumoniae SIC (OXA-48 + CTX-M-15 + SHV-28)
  MIC: 1 µg/mL
[1]; K. pneumoniae SIC, OXA-48 + CTX-M-15 + SHV-28
  MIC: 1 µg/mL
[1]; K. pneumoniae SIM (CTX-M-15 + TEM-1 + SHV-1)
  MIC: > 32 µg/mL
[1]; K. pneumoniae SIM, CTX-M-15 + TEM-1 + SHV-1, non-carbapenemase producer, porin deficiency
  MIC: > 32 µg/mL
[1]; K. pneumoniae TAW, IMP-8 + SHV-12
  MIC: 0.5 µg/mL
[1]; K. pneumoniae TIK, OXA-48
  MIC: 2 µg/mL
[1]; K. pneumoniae TUR (IMP-1)
  MIC: 2 µg/mL
[1]; K. pneumoniae TUR, IMP-1
  MIC: 2 µg/mL
[1]; K. pneumoniae TWA, IMP-8
  MIC: 1 µg/mL
[1]; K. pneumoniae UK (NDM-1 + CTX-M-15 + CMY-4 + OXA-1)
  MIC: > 32 µg/mL
[1]; K. pneumoniae UK, NDM-1 + CTX-M-15 + CMY-4 + OXA-1
  MIC: > 32 µg/mL
[1]; K. pneumoniae VER, OXA-48 + TEM-1 + CTX-M-15 + SHV-11
  MIC: 2 µg/mL
[1]; K. pneumoniae VSG (OXA-48 + TEM-1 + CTX-M-15 + OXA-1)
  MIC: 3 µg/mL
[1]; K. pneumoniae VSG, OXA-48 + TEM-1 + CTX-M-15 + OXA-1
  MIC: 3 µg/mL
[1]; K. pneumoniae YC, KPC-2 + TEM-1 + SHV-11 + SHV-12 + OXA-9
  MIC: 24 µg/mL
[1]; strain K. pneumoniae 7725, SHV-1, non-carbapenemase producer
  MIC: 0.006 µg/mL
[1]; strain K. pneumoniae 648236, SHV-2a, non-carbapenemase producer
  MIC: 2 µg/mL
[1]; strain K. pneumoniae ALE, CTX-M-15 + SHV-1, non-carbapenemase producer
  MIC: > 32 µg/mL
[1]; strain K. pneumoniae AMS, OXA-48 + TEM-1 + CTX-M-15 + OXA-1
  MIC: 2 µg/mL
[1]; strain K. pneumoniae BAJ, OXA-48 + TEM-1 + CTX-M-15 + SHV-28
  MIC: 1.5 µg/mL
[1]; strain K. pneumoniae BED, CTX-M-15 + TEM-1 + SHV-11, non-carbapenemase producer
  MIC: > 32 µg/mL
[1]; strain K. pneumoniae BEL, OXA-48
  MIC: 4 µg/mL
[1]; strain K. pneumoniae BEN, OXA-48 + TEM-1 + CTX-M-15 + SHV-28
  MIC: 1 µg/mL
[1]; strain K. pneumoniae BER, SHV-28 + TEM-1, non-carbapenemase producer
  MIC: 4 µg/mL
[1]; strain K. pneumoniae ELK, OXA-48 + TEM-1 + CTX-M-15 + SHV-11
  MIC: 3 µg/mL
[1]; strain K. pneumoniae HOL, OXA-181 + CTX-M-15
  MIC: 4 µg/mL
[1]; strain K. pneumoniae MUS, KPC-2 + TEM-1 + SHV-11 + SHV-12
  MIC: 4 µg/mL
[1]; strain K. pneumoniae OM2, NDM-1 + TEM-1 + CTX-M-3 + SHV-11 + OXA-1
  MIC: 8 µg/mL
[1]; strain K. pneumoniae OMA419, NDM-1 + OXA-1
  MIC: 6 µg/mL
[1]; strain K. pneumoniae OMA, OXA-181 + CTXM-15 + OXA-1
  MIC: 2 µg/mL
[1]; strain K. pneumoniae ROU, OXA-48 + CTX-M-15
  MIC: 1.5 µg/mL
[1]; strain K. pneumoniae SCO, OXA-48
  MIC: 0.75 µg/mL
[1]; strain K. pneumoniae SIC, OXA-48 + CTX-M-15 + SHV-28
  MIC: 1 µg/mL
[1]; strain K. pneumoniae VSG, OXA-48 + TEM-1 + CTX-M-15 + OXA-1
  MIC: 3 µg/mL
[2]; C. freundii MAU, Overexpressed AmpC + TEM-3, non-carbapenemase producer
  MIC: 8 µg/mL
[2]; Citrobacter freundii, C. freundii 1003, CTX-M-15 + TEM-1, non-carbapenemase producer, read-out: MIC
  MIC: 0.016 µg/mL
[2]; Citrobacter freundii, C. freundii 7767 (wild type), read-out: MIC
  MIC: 0.008 µg/mL
[2]; Citrobacter freundii, C. freundii 7767, (wild type), non-carbapenemase producer, read-out: MIC
  MIC: 0.008 µg/mL
[2]; Citrobacter freundii, C. freundii 10107 (TEM-1 + SHV-12), read-out: MIC
  MIC: 0.016 µg/mL
[2]; Citrobacter freundii, C. freundii 10107, TEM-1 + SHV-12, non-carbapenemase producer, read-out: MIC
  MIC: 0.016 µg/mL
[2]; Citrobacter freundii, C. freundii 10135 (CTX-M-15), read-out: MIC
  MIC: 0.016 µg/mL
[2]; Citrobacter freundii, C. freundii 10135, CTX-M-15, non-carbapenemase producer, read-out: MIC
  MIC: 0.016 µg/mL
[2]; Citrobacter freundii, C. freundii STE (NDM-1 + OXA-1 + OXA-9 + OXA-10 + CTX-M-15 + TEM-1), read-out: MIC
  MIC: > 32 µg/mL
[2]; Citrobacter freundii, C. freundii STE, NDM-1 + TEM-1 + CTX-M-15 + VIM-4 + OXA-1 + OXA-9 + OXA-10 + OXA-181, read-out: MIC
  MIC: > 32 µg/mL
[2]; Citrobacter freundii, strain C. freundii 10107, TEM-1 + SHV-12, non-carbapenemase producer, read-out: MIC
  MIC: 0.016 µg/mL
[2]; Citrobacter freundii, strain C. freundii 10135, CTX-M-15, non-carbapenemase producer, read-out: MIC
  MIC: 0.016 µg/mL
[2]; strain C. freundii MAU, Overexpressed AmpC + TEM-3, non-carbapenemase producer
  MIC: 8 µg/mL
